In general, solubility refers to how much of the substance goes into solution per volume.

Among the data in patent US20260103581A1, “PROCESS FOR GRANULATING AZO COMPOUNDS AND GRANULES OBTAINED” (ARKEMA FRANCE, priority 2022, published 2026) are solubility and Dissolution time values, retold here.

Data set [1] in a line: Measurement of the solubility of AZDN in the organic binder. As to conditions: 20 °C, organic solvent or mixture, thermodynamic from solid.
Method: (§1) The bottle is shaken for a period of between 1 h and 10 h, for example 6 h. After decantation, said binder is analysed to determine its content of compound of formula (I): this content corresponds to the solubility of the azo compound in the organic binder in g/L. The analysis is carried out by gas chromatography.
(§2) The bottle is shaken for approximately 6 h. After decantation, the organic binder is analysed to determine its AZDN concentration. The analysis is carried out by gas chromatography with an injector temperature set at 220° C. (under these conditions, AZDN is essentially transformed into tetramethylsuccinonitrile in the injector).
A short description of data set [2]: physchem. As to conditions: 20 °C, organic solvent or mixture, thermodynamic from solid.
Method: as §1, §2
Data set [3] can be described thus: Granule dissolution test in acetone. It is filed as physicochemical. Particulars: 13 g AZDN in 100 ml acetone, room temperature, 100 rpm, visual. As to the method: A granule dissolution test is carried out at room temperature. A glass Erlenmeyer flask fitted with a magnetic stirring bar is placed on a magnetic stirrer. With the stirring stopped, 13 g of AZDN are introduced into the Erlenmeyer flask. 100 ml of acetone are then introduced quickly and stirring is started (100 rpm). The time taken until, visually, undissolved AZDN crystals are no longer seen is recorded.
Commercial recrystallized AZDN (130-257-438 microns/dv 10-50-90), AZDN granules prepared and dried as obtained above, and the dry powdered AZDN used in Example 1 are compared.

A short description of data set [4]: physchem.
From the text: The aqueous phase is decanted and then analysed by gas chromatography in order to determine the binder content in g/L, corresponding to its solubility.
The aqueous phase is decanted and then analysed by gas chromatography to determine the concentration of organic binder.
Where [5] appears, read: water, 20 °C, thermodynamic from solid.
Setting [6] is: 20 °C, water, thermodynamic from solid.

≈ marks a conversion by molar mass, not a printed value.

Turning to `CC(C)(C#N)N=NC(C)(C)C#N` [AZDN, 2,2′-azobis(isobutyronitrile)], the solubility at 6 h in data set [1] (isobutyl acetate) amounted to 59 mg/mL (≈ 359 mM); in data set [1] (meta-xylene) it was 25 mg/mL (≈ 152 mM); in data set [1] (methoxycyclopentane (CPME)), 30.5 mg/mL (≈ 186 mM); in data set [1] (methyl isobutyl ketone), 75.5 mg/mL (≈ 460 mM); in data set [1] (methyl pentyl ketone), 45 mg/mL (≈ 274 mM); in data set [1] (toluene) it was 60 mg/mL (≈ 365 mM). The solubility at 6 h was determined as 85 mg/mL (≈ 518 mM) in data set [2] (diethyl carbonate) and 59 mg/mL (≈ 359 mM) in data set [2] (n-butyl acetate).
Regarding `CC(C)(C#N)N=NC(C)(C)C#N` [Dry AZDN powder, 2,2′-azobis(isobutyronitrile)], in data set [3], the Dissolution time came to 15 s.
Consider `CC(=O)OCC(C)C` [Isobutyl acetate], for which the solubility at 1 h in data set [4] (setting [5]) came to 7 mg/mL.
Turning to `COC1CCCC1` [Methoxycyclopentane], the concentration in solution in data set [4] (setting [5]) (solubility at 1 h) was 12.5 mg/mL (≈ 125 mM).
In the case of `CC(=O)CC(C)C` [Methyl isobutyl ketone], the solubility at 1 h in data set [4] (setting [5]) turned out to be 20 mg/mL (≈ 200 mM).
Consider `CCCCCC(C)=O` [Methyl pentyl ketone], for which, in data set [4] (setting [5]), the solubility at 1 h amounted to 5 mg/mL (≈ 43.8 mM).
Consider `CC(C)(C#N)N=NC(C)(C)C#N` [Recrystallized AZDN, 2,2′-azobis(isobutyronitrile), reference compound], for which the Dissolution time in data set [3] was 35 s.
`Cc1cccc(C)c1` [meta-Xylene] showed a solubility at 1 h in data set [4] (setting [6]) of under 0.5 mg/mL.
Same read-out and setting: the same measure for `CCCCOC(C)=O` [n-Butyl acetate]: 7 mg/mL.
